Activity calls are given as the source filed them.
Experiments:
Cytochrome P450 2C9 = Cytochrome P450 2C9 (Homo sapiens, UniProt P11712)
Cytochrome P450 1A2 = biological target: T1, Cytochrome P450 1A2 (Homo sapiens, UniProt P05177);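 also: PubChem cytochrome P450 panel assay, CYP1A2 panel member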
T1 sequence (P05177 whole entry): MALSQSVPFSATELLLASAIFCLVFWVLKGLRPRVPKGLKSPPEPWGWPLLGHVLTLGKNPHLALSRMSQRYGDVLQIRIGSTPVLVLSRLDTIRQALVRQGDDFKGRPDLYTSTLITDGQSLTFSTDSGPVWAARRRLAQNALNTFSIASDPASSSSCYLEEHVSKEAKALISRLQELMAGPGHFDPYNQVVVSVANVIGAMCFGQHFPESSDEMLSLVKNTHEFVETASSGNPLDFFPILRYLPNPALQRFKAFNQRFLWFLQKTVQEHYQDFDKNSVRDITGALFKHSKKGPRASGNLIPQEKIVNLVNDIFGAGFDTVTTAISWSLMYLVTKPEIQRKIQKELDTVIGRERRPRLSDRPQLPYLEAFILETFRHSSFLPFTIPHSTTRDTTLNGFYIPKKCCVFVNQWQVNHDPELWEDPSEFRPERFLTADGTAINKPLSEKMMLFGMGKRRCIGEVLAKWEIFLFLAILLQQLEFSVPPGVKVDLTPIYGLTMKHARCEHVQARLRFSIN

[1] = biological target: T2, RNA-binding protein pos-1 (Caenorhabditis elegans, UniProt G5EF15); test: disruptors of C. elegans POS-1 RNA interaction – biochemical, fluorescence polarization, dose response (AID 1964);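 also: purified POS-1 fused to maltose binding protein made in E. coli; potency of compounds blocking POS-1 binding to fluorescent RNA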
T2 sequence (G5EF15 whole entry): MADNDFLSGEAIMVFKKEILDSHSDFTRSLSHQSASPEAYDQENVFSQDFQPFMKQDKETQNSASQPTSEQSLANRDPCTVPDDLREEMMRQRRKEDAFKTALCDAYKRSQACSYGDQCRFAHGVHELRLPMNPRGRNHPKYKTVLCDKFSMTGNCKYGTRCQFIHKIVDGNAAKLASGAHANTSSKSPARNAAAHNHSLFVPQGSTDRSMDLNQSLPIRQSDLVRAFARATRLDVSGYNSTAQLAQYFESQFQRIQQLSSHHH

[2] = biological target: Intestinal-type alkaline phosphatase (Homo sapiens, UniProt P09923); test: inhibition of human intestinal alkaline phosphatase – biochemical, dose response (AID 488876); assay type: functional
Sequence of Intestinal-type alkaline phosphatase (Homo sapiens, UniProt P09923) (P09923 whole entry): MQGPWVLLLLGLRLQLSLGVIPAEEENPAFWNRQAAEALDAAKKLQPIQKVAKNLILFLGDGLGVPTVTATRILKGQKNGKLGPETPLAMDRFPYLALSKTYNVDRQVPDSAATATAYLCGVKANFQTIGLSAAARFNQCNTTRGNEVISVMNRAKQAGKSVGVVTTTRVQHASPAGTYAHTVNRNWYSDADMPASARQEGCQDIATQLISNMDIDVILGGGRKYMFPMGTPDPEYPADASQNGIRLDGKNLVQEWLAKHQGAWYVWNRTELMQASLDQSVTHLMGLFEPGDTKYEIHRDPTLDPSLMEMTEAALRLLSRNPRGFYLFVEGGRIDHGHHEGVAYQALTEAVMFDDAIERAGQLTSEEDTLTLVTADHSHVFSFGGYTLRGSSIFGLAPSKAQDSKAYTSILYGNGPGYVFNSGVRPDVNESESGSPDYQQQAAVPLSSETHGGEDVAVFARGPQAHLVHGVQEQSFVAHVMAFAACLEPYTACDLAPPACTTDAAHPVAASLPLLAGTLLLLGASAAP

[3] = biological target: T3, Alkaline phosphatase, tissue-nonspecific isozyme (Homo sapiens, UniProt P05186); test: TNAP enzyme inhibition by screening hits, dose response, selectivity assay for mouse IAP inhibitor project, biochemical, human TNAP, uHTS hits (AID 488906); assay type: functional
T3 sequence (P05186 whole entry): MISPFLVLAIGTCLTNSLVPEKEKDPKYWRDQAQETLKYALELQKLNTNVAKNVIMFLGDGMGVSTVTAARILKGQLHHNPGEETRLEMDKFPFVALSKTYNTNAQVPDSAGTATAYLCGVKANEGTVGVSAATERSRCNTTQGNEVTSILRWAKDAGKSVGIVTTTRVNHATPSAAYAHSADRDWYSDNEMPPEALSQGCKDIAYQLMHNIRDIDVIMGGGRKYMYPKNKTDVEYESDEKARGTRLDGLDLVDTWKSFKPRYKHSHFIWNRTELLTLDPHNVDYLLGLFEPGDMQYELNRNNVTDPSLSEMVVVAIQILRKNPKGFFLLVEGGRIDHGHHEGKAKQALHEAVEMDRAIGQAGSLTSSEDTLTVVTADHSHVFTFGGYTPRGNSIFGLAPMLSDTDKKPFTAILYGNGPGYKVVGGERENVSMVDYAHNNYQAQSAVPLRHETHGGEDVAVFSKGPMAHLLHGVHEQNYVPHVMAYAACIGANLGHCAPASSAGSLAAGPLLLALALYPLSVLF

[4] = biological target: T4, Zinc finger protein mex-5 (Caenorhabditis elegans, UniProt Q9XUB2); test: potency of MEX-5 RNA-binding blockers – biochemical, C. elegans, fluorescence polarization, dose response (AID 1960)
T4 sequence (Q9XUB2 whole entry): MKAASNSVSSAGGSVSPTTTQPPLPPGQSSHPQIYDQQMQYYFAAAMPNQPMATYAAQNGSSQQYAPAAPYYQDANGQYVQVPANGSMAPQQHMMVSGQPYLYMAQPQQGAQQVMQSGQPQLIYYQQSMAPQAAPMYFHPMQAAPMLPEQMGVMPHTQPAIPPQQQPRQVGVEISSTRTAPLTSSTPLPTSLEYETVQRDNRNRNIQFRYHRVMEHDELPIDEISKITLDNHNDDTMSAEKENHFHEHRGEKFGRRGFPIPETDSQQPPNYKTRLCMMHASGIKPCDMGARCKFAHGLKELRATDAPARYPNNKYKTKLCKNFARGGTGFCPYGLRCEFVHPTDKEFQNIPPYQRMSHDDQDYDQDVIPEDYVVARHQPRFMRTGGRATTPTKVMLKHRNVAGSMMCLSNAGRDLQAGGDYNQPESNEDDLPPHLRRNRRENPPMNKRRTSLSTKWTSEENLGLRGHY

[5] = biological target: Intestinal-type alkaline phosphatase (Mus musculus, UniProt P24822); test: PubChem AID 488785; assay type: functional
Sequence of Intestinal-type alkaline phosphatase (Mus musculus, UniProt P24822) (P24822 whole entry): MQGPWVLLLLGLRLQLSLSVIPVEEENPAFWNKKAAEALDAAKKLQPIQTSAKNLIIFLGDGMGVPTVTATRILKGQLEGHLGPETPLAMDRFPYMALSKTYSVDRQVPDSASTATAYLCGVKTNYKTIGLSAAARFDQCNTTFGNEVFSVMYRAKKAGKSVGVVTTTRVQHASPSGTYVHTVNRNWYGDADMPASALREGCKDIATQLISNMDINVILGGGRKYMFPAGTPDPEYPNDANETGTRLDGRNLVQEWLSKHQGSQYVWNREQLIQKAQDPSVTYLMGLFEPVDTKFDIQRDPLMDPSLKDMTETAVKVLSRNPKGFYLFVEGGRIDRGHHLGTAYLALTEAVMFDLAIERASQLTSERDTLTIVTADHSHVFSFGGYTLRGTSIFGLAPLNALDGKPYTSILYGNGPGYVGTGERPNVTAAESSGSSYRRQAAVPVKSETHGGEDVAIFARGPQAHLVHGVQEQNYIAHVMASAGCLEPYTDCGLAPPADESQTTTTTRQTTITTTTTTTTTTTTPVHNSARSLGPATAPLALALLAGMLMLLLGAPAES

[6] = biological target: DNA (cytosine-5)-methyltransferase 1 (Homo sapiens, UniProt P26358); test: inhibition of DNA methylation by DNMT1 – biochemical, fluorescent molecular beacon, confirmation (AID 602386); assay type: functional
Sequence of DNA (cytosine-5)-methyltransferase 1 (P26358 whole entry): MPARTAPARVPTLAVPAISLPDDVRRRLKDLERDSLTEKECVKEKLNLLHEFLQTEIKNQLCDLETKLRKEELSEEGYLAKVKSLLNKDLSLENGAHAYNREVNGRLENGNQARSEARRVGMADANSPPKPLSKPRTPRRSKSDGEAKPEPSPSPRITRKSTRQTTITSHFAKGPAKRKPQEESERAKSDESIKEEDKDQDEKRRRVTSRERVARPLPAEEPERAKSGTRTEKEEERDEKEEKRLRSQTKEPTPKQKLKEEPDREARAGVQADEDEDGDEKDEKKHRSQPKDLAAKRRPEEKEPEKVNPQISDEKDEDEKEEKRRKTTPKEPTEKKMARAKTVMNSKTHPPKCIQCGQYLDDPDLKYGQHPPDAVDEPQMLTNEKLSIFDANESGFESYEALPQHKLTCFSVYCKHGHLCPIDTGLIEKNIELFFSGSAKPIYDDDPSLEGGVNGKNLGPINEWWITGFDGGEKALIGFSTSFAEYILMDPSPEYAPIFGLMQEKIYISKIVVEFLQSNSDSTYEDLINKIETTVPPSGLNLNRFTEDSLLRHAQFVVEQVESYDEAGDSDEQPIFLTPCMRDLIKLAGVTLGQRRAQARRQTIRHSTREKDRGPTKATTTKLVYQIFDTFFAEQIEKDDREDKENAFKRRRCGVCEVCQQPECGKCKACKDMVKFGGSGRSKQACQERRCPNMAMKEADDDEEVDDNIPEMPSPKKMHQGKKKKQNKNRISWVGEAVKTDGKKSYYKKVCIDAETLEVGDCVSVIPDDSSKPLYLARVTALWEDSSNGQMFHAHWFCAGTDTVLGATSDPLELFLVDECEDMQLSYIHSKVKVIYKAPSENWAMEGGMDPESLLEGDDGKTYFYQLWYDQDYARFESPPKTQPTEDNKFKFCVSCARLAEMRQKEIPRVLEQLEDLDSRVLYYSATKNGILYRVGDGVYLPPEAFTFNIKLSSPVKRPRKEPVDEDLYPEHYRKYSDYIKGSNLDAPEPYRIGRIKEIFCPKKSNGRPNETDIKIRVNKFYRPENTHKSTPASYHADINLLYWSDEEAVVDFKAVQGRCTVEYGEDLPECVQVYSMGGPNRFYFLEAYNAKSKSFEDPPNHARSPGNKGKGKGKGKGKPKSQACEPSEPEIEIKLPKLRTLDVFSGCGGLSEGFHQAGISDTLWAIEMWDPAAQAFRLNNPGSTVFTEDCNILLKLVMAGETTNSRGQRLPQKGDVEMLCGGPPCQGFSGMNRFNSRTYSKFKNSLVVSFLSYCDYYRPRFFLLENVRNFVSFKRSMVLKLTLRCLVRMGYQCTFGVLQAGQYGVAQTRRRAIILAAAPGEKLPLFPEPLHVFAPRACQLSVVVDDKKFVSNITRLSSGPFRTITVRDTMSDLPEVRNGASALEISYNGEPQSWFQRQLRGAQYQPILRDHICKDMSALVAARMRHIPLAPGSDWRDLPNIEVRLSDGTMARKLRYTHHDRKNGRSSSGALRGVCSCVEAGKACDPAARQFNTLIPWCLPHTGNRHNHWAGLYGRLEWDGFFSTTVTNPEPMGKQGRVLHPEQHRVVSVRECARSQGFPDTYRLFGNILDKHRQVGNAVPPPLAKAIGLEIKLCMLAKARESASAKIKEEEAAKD

Genome polyprotein = Genome polyprotein (dengue virus type 2, UniProt P29990); test: flavivirus cap methylation enzyme inhibition – biochemical, confirmation dose response, primary screen (AID 588689); assay type: functional
Sequence of Genome polyprotein (P29990 2492-3391 limits assumed): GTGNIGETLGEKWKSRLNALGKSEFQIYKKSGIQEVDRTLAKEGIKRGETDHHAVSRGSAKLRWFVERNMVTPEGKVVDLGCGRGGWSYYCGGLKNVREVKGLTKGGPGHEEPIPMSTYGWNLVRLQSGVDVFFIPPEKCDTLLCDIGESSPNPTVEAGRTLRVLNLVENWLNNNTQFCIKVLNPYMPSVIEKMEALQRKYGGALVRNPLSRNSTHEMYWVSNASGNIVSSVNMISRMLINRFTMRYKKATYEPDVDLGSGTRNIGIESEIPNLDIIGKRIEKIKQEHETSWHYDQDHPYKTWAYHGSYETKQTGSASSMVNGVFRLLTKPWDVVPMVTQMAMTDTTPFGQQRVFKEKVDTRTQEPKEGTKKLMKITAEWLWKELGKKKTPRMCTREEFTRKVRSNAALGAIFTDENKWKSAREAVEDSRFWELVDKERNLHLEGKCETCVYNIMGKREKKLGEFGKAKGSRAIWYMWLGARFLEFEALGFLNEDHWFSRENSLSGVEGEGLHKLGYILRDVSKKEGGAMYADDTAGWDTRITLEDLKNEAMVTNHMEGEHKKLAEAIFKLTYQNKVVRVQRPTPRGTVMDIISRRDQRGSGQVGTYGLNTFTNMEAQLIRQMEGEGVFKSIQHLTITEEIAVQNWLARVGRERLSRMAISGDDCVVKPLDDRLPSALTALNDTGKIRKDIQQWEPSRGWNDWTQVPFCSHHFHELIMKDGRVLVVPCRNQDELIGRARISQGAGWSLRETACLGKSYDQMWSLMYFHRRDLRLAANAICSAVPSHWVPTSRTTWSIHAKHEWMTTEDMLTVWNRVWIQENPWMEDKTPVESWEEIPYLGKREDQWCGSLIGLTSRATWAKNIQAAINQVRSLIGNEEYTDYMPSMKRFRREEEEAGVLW

Escherichia coli = test: microbe, parasite or virus in culture
[7] = A Cell Based Secondary Assay To Explore Cytotoxicity of Compounds that Sensitize Mycobacterium Tuberculosis to Beta-Lactam Antibiotics.; assay type: functional
Hexokinase HKDC1 = biological target: T5, Hexokinase HKDC1 (Homo sapiens, UniProt Q2TB90); test: activation of HKDC1 glucose phosphorylation – biochemical, W721R variant, dose response (AID 504730); assay type: functional
T5 sequence (Q2TB90 whole entry): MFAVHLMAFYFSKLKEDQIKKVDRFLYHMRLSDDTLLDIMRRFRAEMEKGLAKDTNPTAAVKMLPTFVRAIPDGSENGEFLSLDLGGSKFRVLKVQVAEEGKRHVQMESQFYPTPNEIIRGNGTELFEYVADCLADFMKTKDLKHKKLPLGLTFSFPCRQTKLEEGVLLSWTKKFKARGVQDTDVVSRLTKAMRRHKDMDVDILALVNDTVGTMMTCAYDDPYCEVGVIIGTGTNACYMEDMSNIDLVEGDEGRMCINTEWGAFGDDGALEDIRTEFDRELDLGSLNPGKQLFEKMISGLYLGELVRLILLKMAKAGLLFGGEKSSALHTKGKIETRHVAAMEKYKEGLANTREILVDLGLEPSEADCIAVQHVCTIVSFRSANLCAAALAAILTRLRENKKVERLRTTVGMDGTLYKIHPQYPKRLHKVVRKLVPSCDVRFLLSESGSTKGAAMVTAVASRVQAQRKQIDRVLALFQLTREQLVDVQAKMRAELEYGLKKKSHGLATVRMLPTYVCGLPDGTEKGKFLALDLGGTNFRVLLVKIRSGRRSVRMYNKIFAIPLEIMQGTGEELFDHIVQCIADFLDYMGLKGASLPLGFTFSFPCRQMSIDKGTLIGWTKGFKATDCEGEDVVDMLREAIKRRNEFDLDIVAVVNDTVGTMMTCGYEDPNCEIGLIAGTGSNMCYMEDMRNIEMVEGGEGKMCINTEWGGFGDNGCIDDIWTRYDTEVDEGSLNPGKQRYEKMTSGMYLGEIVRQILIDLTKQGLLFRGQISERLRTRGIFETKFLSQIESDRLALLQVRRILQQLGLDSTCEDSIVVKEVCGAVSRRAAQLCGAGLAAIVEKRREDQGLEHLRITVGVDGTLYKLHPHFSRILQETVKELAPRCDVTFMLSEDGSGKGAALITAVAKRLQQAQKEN

[8] = viability loss of HPDE-C7K cells – cell-based, fluorescence, HTS, primary screen (AID 431); assay type: functional; settings: Homo sapiens
[9] = biological target: T6, Ubiquitin-conjugating enzyme E2 N (Homo sapiens, UniProt P61088); assay type: functional;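 also: Dose-response confirmation in a TR-FRET assay detecting UBC13-driven polyubiquitin chain formation, inhibition measured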
T6 sequence (P61088 whole entry): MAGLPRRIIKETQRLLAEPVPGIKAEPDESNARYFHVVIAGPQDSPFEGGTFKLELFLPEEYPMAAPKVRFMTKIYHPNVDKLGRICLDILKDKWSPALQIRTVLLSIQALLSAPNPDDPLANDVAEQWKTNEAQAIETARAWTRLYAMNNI

[10] = HPDE-C7 pancreatic duct cell viability loss – fluorescence, HTS (AID 430); assay type: functional, cell-based; settings: Homo sapiens
CAAX prenyl protease 1 = CAAX prenyl protease 1 (Saccharomyces cerevisiae S288c, UniProt P47154); test: yeast CAAX protease Ste24 inhibition – biochemical, S. cerevisiae, plate reader, cherry-pick, dose response (AID 488815)
CAAX prenyl protease 2 = biological target: T7, CAAX prenyl protease 2 (Saccharomyces cerevisiae S288c, UniProt Q03530); assay type: biochemical
T7 sequence (Q03530 whole entry): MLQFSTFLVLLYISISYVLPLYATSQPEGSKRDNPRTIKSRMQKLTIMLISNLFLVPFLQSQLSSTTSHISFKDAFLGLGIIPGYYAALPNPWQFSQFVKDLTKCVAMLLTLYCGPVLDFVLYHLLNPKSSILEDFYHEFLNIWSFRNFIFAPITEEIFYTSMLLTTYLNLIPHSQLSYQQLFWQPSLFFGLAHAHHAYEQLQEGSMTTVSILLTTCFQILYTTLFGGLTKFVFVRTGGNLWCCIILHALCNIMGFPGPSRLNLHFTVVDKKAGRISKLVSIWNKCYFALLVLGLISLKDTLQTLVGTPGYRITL

[11] = reduction of Shn3 3'UTR-driven luciferase in osteoblasts – cell-based, Clone20 osteoblasts, firefly luciferase, cherry-picked, dose response (AID 624132); assay type: functional;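 also: firefly luciferase luminescence from reporter carrying the Shn3 3'UTR in osteoblasts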
[12] = biological target: T8, Microphthalmia-associated transcription factor (Homo sapiens, UniProt O75030); test: reducers of TRPM1 reporter luminescence, concentration series – cell-based, SK-MEL-5, cherry-picked, set 3, MITF inhibitor project, dose response (AID 493073); assay type: functional;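 also: SK-MEL-5 melanoma cells with luciferase driven by the MITF target TRPM1 promoter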
T8 sequence (O75030 whole entry): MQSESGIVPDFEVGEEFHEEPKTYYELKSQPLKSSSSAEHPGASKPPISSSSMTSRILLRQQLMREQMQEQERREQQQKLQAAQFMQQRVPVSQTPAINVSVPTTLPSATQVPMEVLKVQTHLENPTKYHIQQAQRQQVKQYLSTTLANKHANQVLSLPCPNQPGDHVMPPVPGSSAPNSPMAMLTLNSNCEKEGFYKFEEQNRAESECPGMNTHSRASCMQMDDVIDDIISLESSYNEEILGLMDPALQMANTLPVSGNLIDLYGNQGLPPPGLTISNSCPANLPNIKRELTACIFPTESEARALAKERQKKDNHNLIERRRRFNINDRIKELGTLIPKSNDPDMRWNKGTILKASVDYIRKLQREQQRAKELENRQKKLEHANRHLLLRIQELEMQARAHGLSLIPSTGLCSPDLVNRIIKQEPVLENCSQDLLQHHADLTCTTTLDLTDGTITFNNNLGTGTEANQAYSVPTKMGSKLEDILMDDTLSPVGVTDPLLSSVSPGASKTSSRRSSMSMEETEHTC

[13] = NIH3T3 cell viability loss – ATP luminescence, mouse fibroblasts, counter-screen, dose response (AID 2010); assay type: functional, cell-based;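 also: cells exposed to compound for about 90 hours before reading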
[14] = loss of viability in HepG2 cells – cell-based, CellTiter-Glo, cherry-picked, cytotoxicity control for Shn3 inhibitor project, dose response (AID 624134); assay type: functional
[15] = Trypanosoma cruzi growth suppression in host cells – NIH3T3 host cells, beta-gal luminescence, confirmation (AID 2044); assay type: functional, cell-based;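 also: intracellular parasites grown in NIH/3T3 mouse fibroblasts as host cells; luminescent beta-galactosidase reporter signal from transgenic T. cruzi replicating inside host cells; inhibitors lower the luminescence signal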
A-375 = test: MITF: Counter assay: A375 proliferation Measured in Cell-Based System Using Plate Reader - 2084-03_Inhibitor_Dose_DryPowder_Activity. [Related pubchem assays (depositor defined):AID488944]; assay type: functional; settings: Homo sapiens
[16] = biological target: Bifunctional protein GlmU (Mycobacterium tuberculosis, UniProt P9WMN3); test: Inhibitors of Mycobacterial Glucosamine-1-phosphate acetyl transferase (GlmU). Secondary screen.; parameters: species or system Mycobacterium tuberculosis H37Rv
Sequence of Bifunctional protein GlmU (P9WMN3 whole entry): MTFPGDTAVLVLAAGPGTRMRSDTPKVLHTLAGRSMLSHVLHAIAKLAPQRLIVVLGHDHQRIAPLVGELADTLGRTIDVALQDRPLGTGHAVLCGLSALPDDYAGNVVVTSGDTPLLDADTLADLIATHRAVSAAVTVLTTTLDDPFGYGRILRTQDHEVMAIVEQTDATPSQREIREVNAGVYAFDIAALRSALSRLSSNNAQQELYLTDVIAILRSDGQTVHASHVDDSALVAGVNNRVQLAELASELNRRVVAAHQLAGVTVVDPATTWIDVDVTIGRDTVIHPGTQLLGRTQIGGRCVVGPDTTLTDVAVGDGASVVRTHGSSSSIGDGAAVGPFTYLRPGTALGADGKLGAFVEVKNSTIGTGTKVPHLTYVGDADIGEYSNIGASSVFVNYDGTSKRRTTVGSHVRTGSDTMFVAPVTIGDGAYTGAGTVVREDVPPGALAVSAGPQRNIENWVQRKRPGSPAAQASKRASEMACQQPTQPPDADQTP

[17] = biological target: Induced myeloid leukemia cell differentiation protein Mcl-1 (Homo sapiens, UniProt Q07820); assay type: functional
[18] = biological target: DNA dC->dU-editing enzyme APOBEC-3G (Homo sapiens, UniProt Q9HC16); test: Dose Response confirmation of small molecule APOBEC3G DNA Deaminase Inhibitors via a fluorescence-based single-stranded DNA deaminase assay. [Related pubchem assays (depositor defined):AID493012, AID493028]; assay type: functional
[19] = biological target: DNA dC->dU-editing enzyme APOBEC-3A (Homo sapiens, UniProt P31941); test: A3A deaminase inhibition for selectivity – biochemical, dose response (AID 504722); assay type: functional
Sequence of DNA dC->dU-editing enzyme APOBEC-3A (P31941 whole entry): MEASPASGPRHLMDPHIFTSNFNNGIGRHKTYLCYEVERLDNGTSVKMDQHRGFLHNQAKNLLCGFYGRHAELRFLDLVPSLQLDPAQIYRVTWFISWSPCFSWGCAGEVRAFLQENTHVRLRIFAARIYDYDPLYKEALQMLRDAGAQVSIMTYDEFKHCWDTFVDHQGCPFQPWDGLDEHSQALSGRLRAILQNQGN

Sequence of Cytochrome P450 2C9 (P11712 whole entry): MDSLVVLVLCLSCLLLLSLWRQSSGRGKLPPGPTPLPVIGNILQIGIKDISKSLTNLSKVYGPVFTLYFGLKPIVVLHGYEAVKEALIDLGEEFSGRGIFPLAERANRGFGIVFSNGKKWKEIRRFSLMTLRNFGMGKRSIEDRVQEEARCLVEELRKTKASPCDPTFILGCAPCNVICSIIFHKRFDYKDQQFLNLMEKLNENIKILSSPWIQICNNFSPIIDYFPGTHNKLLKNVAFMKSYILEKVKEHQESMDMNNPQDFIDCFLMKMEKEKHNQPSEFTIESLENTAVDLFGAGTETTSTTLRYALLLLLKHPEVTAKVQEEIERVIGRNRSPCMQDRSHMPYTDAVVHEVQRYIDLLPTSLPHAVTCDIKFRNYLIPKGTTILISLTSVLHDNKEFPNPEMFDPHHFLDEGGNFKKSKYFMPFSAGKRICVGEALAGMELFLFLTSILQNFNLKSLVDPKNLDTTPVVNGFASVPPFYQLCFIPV

CS(=O)(=O)N1CCC2(CCN(c3ccccc3)CC2)CC1
AC50 (Cytochrome P450 2C9): inconclusive | AC50 (Cytochrome P450 1A2): inconclusive

CN1C(=O)NC(=O)/C(=C\c2ccc([N+](=O)[O-])o2)C1=O
EC50 [1]: 33.3 µM (active) | IC50 [2]: > 100 µM (inactive) | IC50 [3]: > 100 µM (inactive) | EC50 [4]: 20.6 µM (active) | IC50 [5]: > 100 µM (inactive) | IC50 [6]: 2.08 µM (active) | IC50 (Genome polyprotein): 42.6 µM (active)

CCN(CC)CCCNC(=O)c1c(O)c2ccccc2n(Cc2ccccc2)c1=O
AC50 (Escherichia coli): 23.5 µM (active) | CC50 [7]: 32 µM (active) | EC50 (Hexokinase HKDC1): > 80 µM (inactive) | EC50 [8]: > 20 µM (not active) | IC50 [9]: > 20 µM (inactive) | EC50 [10]: > 20 µM (not active)

COc1cc2c(cc1OC)C(C)=NC1(CCCCC1)C2
AC50 (CAAX prenyl protease 1): 8.72 µM (active) | AC50 (CAAX prenyl protease 2): 6.87 µM (active)

Cc1ccc(-n2cc(CNCCCn3ccnc3C)c(-c3ccc(F)cc3)n2)cc1
AC50 [11]: 20.6 µM (active) | AC50 [12]: 7.58 µM (active) | EC50 [13]: 14.4 µM (active) | AC50 [14]: 16.7 µM (active) | EC50 [15]: 1.77 µM (active) | AC50 (A-375): 21.2 µM (active)

O=C1CSC(=S)N1/N=C/c1ccc(O)c(O)c1O
EC50 [1]: 5.17 µM (inconclusive) | IC50 [2]: > 100 µM (inactive) | IC50 [16]: 7.79 µM (active) | IC50 [3]: 58.5 µM (active) | EC50 [4]: 0.668 µM (inconclusive) | IC50 [17]: 1.17 µM (active) | IC50 [5]: 4.15 µM (active)

Sc1nnc(-c2ccccn2)n1/N=C/c1ccc(Cl)cc1
IC50 [18]: 3.33 µM (active) | IC50 [19]: > 100 µM (inactive)

Source: ChEMBL document CHEMBL1201862, “PubChem BioAssay data set” (2004)
